Experimental data published in patent publication US20230139328A1, “DOSAGE FORMS FOR IMPROVING ORGAN TRANSPLANTATION, GRAFT VERSUS HOST DISEASE AND STEM CELLS TRANSPLANTS” (Aphios Corporation, priority 2020, published 2023).

Tested on: neutrophil migration across HUVEC
Test: Neutrophil transendothelial migration (TEM) restoration studies with PKC inhibitors in HUVEC
Type: cell-based, human
Conditions: for restoration of PMN TEM in response to LTB4 after PKC activator treatment: PKC inhibitor 30 min (1, 10, 100 nM) then 100 nM Bryostatin-1 1 h
Protocol: HUVEC were pretreated with G0-6983, a PKC inhibitor with dose dependent specificities for classical vs. novel PKC isoforms for 30 minutes prior to addition of Bryostatin-1 (100 nM) to block neutrophil migration. […] Neutrophil migration towards 100 nM LTB4 was initiated by adding LTB4 to the lower well.
Neutrophil Transendothelial Migration (TEM) Restoration Studies: HUVECs were pretreated with Go-6983 (1, 10, 100 nM), or Go-6976 (1, 10,100 nM) for 30 minutes, then spiked with 100 nM Bryostatin-1 for 1 hour. HUVECs previously nucleofected with PKC-δ, -ε, or control siRNA were just treated in Bryostatin-1 for 1 hour. HUVECs were washed three times and placed in a new plate containing either 500 IL 100 nM LTB4, or HBSS alone for control. Neutrophils were allowed to migrate for 3 h at 37° C. Migration was stopped by removing the inserts and migration was measured using the MPO assay.
Myeloperoxidase Assay: Neutrophil migration was measured using myeloperoxidase (MPO) analysis. Cell culture inserts were first removed, and plates were spun at 1,500 RPM for 5 min. The supernatant was removed, and MPO activity was measured using TMB/peroxide as chromogen. The reaction was stopped with sulfuric acid and absorbance was read at 450 nm using a microplate reader. All experiments were performed n=6. Data was expressed as “% neutrophil migration”, which allowed cumulative statistical analysis to be done and account for unpreventable batch-to-batch variations.

| Compound | effect of inhibitor pretreatment on Bryostatin-1 mediated reduction in migration towards LTB4, 1 nM (1 nM inhibitor 30 min before 100 nM Bryostatin-1) | effect of inhibitor pretreatment on Bryostatin-1 mediated reduction in migration towards LTB4, 10 or 100 nM (10 or 100 nM inhibitor 30 min before 100 nM Bryostatin-1) | restoration of PMN TEM in response to LTB4 after PKC activator treatment | restoration of PMN TEM in response to LTB4 after PKC activator treatment (listed as G0-6983) |
| --- | --- | --- | --- | --- |
| COc1ccc2c(c1)c(C1=C(c3c[nH]c4ccccc34)C(=O)NC1=O)cn2CCCN(C)C [Go-6983] | but not by 1 nM G06983 | prevented | dose dependently restored neutrophil migration | dose dependently reversed |
| Cn1c2ccccc2c2c3c(c4c5ccccc5n(CCC#N)c4c21)CNC3=O [GO-6976] |  |  | did not restore PMN TEM |  |
| CC(=O)c1c(O)c(C)c(O)c(Cc2c(O)c3c(c(C(=O)/C=C/c4ccccc4)c2O)OC(C)(C)C=C3)c1O [Rottlerin] |  |  | did not restore PMN TEM |  |
| CN(C)CCCn1cc(C2=C(c3c[nH]c4ccccc34)C(=O)NC2=O)c2ccccc21 [GF10923X] |  |  | did not restore PMN TEM |  |
| CN[C@@H]1C[C@H]2O[C@@](C)([C@@H]1OC)n1c3ccccc3c3c4c(c5c6ccccc6n2c5c31)C(=O)NC4 [staurosporine] |  |  | did not restore PMN TEM |  |
